Source: patent US20050192314A1, “Urea derivatives as C-kit modulators” (Ambit Biosciences Corporation, priority 2003, published 2005)

Key:
KIT(JMminus) = target: T1, KIT(JMminus) (Homo sapiens, UniProt P10721); experiment: Binding constant (Kd) measurement, phage-displayed kinase competition binding assay: KIT(JMminus)
T1 construct: KIT(JMminus); made in house
Source text: (§1) The term “ND” represents non-determined values.

KIT(JMminus,D816V) = target: T2, KIT(JMminus,D816V) (Homo sapiens, UniProt P10721, D816V); experiment: Binding constant (Kd) measurement, phage-displayed kinase competition binding assay: KIT(JMminus,D816V)
T2 construct: KIT(JMminus,D816V); made in house
T2 sequence (P10721 589-937 D816V limits assumed): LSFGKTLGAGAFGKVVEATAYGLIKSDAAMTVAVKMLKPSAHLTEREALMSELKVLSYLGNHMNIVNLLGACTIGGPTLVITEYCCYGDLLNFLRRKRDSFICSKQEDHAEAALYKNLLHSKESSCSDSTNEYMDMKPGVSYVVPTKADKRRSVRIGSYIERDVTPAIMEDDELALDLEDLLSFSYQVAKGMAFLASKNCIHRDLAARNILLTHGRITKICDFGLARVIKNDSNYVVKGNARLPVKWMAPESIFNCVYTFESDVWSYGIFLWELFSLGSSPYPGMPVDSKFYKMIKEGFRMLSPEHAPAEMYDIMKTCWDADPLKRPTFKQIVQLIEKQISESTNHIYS
Source text: as §1

KIT(DKIN) = target: T3, KIT(DKIN) (Homo sapiens, UniProt P10721); experiment: Binding constant (Kd) measurement, phage-displayed kinase competition binding assay: KIT(DKIN)
T3 construct: KIT(DKIN); made in house
T3 sequence (P10721 589-937 limits assumed): as the sequence (P10721 589-937 D816V limits assumed) above, with V228D counted along it
Source text: as §1

MKNK2(DKIN) = target: T4, MKNK2(DKIN) (Homo sapiens, UniProt Q9HBH9); experiment: Binding constant (Kd) measurement, phage-displayed kinase competition binding assay: MKNK2(DKIN)
T4 construct: MKNK2(DKIN); made in house
T4 sequence (Q9HBH9 84-388 limits assumed): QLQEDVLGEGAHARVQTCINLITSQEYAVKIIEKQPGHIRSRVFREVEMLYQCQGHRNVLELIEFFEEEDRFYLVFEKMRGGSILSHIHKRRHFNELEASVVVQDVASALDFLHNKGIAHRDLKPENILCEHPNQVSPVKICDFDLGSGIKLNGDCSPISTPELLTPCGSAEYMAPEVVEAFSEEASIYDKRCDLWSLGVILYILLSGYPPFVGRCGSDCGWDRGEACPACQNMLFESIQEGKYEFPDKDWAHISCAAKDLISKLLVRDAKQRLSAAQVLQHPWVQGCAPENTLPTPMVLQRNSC
Source text: as §1

CS0001 = experiment: Cell Assay: CS0001:IC50; assay type: cell-based
KIT(JMplus) = KIT(JMplus) (Homo sapiens, UniProt P10721); experiment: Binding constant (Kd) measurement, phage-displayed kinase competition binding assay: KIT(JMplus)
Sequence of KIT(JMplus) (P10721 546-976 limits assumed): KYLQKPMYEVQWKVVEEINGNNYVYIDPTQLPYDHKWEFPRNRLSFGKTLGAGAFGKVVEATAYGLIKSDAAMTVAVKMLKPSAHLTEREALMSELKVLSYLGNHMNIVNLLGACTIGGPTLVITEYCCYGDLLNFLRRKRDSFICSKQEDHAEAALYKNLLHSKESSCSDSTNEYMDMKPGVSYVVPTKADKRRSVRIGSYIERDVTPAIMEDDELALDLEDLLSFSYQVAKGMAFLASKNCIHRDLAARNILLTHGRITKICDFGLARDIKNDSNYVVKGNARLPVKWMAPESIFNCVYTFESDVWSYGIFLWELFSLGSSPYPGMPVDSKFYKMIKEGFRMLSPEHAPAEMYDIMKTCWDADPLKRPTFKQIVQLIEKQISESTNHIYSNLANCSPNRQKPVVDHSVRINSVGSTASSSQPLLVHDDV
Source text: The components of the assays include human kinases expressed as fusions to T7 bacteriophage particles and immobilized ligands that bind to the ATP site of the kinases. […] If the test compound binds the kinase it competes with the immobilized ligand and prevents binding to the solid support. […] The results are read out by quantitating the amount of fusion protein bound to the solid support, which is accomplished by either traditional phage plaque assays or by quantitative PCR (qPCR) using the phage genome as a template.

KIT(JMplus,V559D) = target: T5, KIT(JMplus,V559D) (Homo sapiens, UniProt P10721, V559D); experiment: Binding constant (Kd) measurement, phage-displayed kinase competition binding assay: KIT(JMplus,V559D)
T5 construct: KIT(JMplus); made in house
T5 sequence (P10721 546-976 V559D limits assumed): as the sequence (P10721 546-976 limits assumed) above, with V14D counted along it
Source text: as §1

T1 sequence (P10721 589-937 limits assumed): as the sequence (P10721 589-937 D816V limits assumed) above, with V228D counted along it

Row | Compound | Kd (KIT(JMminus)) [nM] | Kd (KIT(JMminus,D816V)) [nM] | Kd (KIT(DKIN)) [nM] | Kd (MKNK2(DKIN)) [nM] | IC50 (CS0001) [nM] | Kd (KIT(JMplus)) [nM] | Kd (KIT(JMplus,V559D)) [nM]
1 | CC(C)(C)c1cc(NC(=O)Nc2ccc(N3C(=O)c4ccccc4C3=O)cc2)no1 [Compound A57] | < 100 | 1000 to 10000 | – | – | – | – | –
2 | CC(C)(C)c1cc(NC(=O)Nc2ccc(OCc3ccccc3F)cc2)no1 [Compound G12, 1-(4-(2-fluorobenzyloxy)phenyl)-3-(5-tert-butylisoxazol-3-yl)urea] | < 100 | 1000 to 10000 | 100 to 1000 | – | – | – | –
3 | CC(C)(C)c1cc(NC(=O)Nc2ccc(C(=O)/C=C/c3ccncc3)cc2)no1 | – | – | – | – | 100 to 1000 | – | –
4 | CC(C)(C)c1cc(NC(=O)Nc2ccc(OCCCc3ccncc3)cc2)no1 [Compound G1, 1-(4-(3-(pyridin-4-yl)propoxy)phenyl)-3-(5-tert-butylisoxazol-3-yl)urea] | < 100 | – | < 100 | – | – | – | –
5 | CC(C)(C)c1cc(NC(=O)Nc2ccc(NC(=O)c3cccc(Cl)n3)cc2)no1 [Compound N4] | < 100 | – | < 100 | – | – | – | –
6 | CC(C)(C)c1cnc(CSc2cnc(NC(=O)Nc3ccon3)s2)o1 | – | – | – | – | < 100 | – | –
7 | CC(C)(C)c1cc(NC(=O)Nc2ccc(NC(=O)c3cn4nc(Cl)ccc4n3)cc2)no1 [Compound N9] | < 100 | – | < 100 | – | – | – | –
8 | CC(C)(C)c1cc(NC(=O)Nc2ccc(NC(=O)c3cccc(F)n3)cc2)no1 [Compound N8] | < 100 | – | < 100 | – | – | – | –
9 | CC(C)(C)c1cc(NC(=O)Nc2ccc(OCC3CC3)cc2)no1 [Compound G37] | < 100 | 1000 to 10000 | < 100 | 100 to 1000 | – | – | –

Further lines, results first:

Row | Kd (KIT(JMminus)) [nM] | Kd (KIT(JMminus,D816V)) [nM] | Kd (KIT(DKIN)) [nM] | Kd (MKNK2(DKIN)) [nM] | IC50 (CS0001) [nM] | Kd (KIT(JMplus)) [nM] | Kd (KIT(JMplus,V559D)) [nM] | Compound
10 | – | < 100 | < 100 | – | – | – | – | CC(C)(C)c1cc(NC(=O)Nc2ccc(Nc3ncnc4[nH]cnc34)cc2)no1 [Compound O3]
11 | < 100 | 100 to 1000 | – | 100 to 1000 | – | – | – | C=N/C(=N\C)Oc1cccc(C(=O)Nc2ccc(NC(=O)Nc3cc(C(C)(C)C)on3)cc2)c1 [Compound N74]
12 | < 100 | 1000 to 10000 | – | 100 to 1000 | – | – | – | CC(C)(C)c1cc(NC(=O)Nc2ccc(C(=O)Nc3nccnc3N)cc2)no1 [Compound N157]
13 | < 100 | 1000 to 10000 | – | – | – | – | – | Cc1ccc2[nH]c(C(=O)Nc3ccc(NC(=O)Nc4cc(C(C)(C)C)on4)cc3)cc2c1 [Compound N127]
14 | < 100 | 100 to 1000 | < 100 | – | – | < 100 | – | CC(C)(C)c1cc(NC(=O)Nc2ccc(NC(=O)c3ccccn3)cc2)no1 [Compound N188]
15 | < 100 | 100 to 1000 | – | – | – | – | – | CC(=O)Oc1cccnc1C(=O)Nc1ccc(NC(=O)Nc2cc(C(C)(C)C)on2)cc1 [Compound N79]
16 | – | 100 to 1000 | < 100 | – | – | – | – | Cc1[nH]c(C(=O)Nc2ccc(NC(=O)Nc3cc(C(C)(C)C)on3)cc2)c(C)c1CCC(=O)O [Compound N39]
17 | < 100 | 100 to 1000 | < 100 | – | – | < 100 | – | CC(C)(C)c1cc(NC(=O)Nc2ccc(NC(=O)c3ncccc3O)cc2)no1 [Compound N134]
18 | < 100 | – | 100 to 1000 | – | – | – | – | Cc1nc(-c2ccc(C(=O)Nc3ccc(NC(=O)Nc4cc(C(C)(C)C)on4)cc3)s2)cs1 [Compound N173]
19 | < 100 | 1000 to 10000 | – | – | – | – | – | CC(C)(C)c1cc(NC(=O)Nc2ccc(NC(=O)c3cc4ccccc4[nH]3)cc2)no1 [Compound N161]
20 | < 100 | 1000 to 10000 | 100 to 1000 | – | – | – | < 100 | COc1cc2nc(Cl)nc(Nc3ccc(NC(=O)Nc4cc(C(C)(C)C)on4)cc3)c2cc1OC [Compound O1, 1-(4-(2-chloro-6,7-dimethoxyquinazolin-4-ylamino)phenyl)-3-(5-tert-butylisoxazol-3-yl)urea]
21 | < 100 | < 100 | – | – | – | – | < 100 | COc1cc2ncnc(Nc3ccc(NC(=O)Nc4cc(C(C)(C)C)on4)cc3)c2cc1OC [Compound O5]
